In patent US6426413B1, “Inhibitors of caspases” (Vertex Pharmaceuticals Incorporated, priority 1998, dated 2002):

Experiments:
ICE Caspase-1 = target: T1, ICE Caspase-1 (Homo sapiens, UniProt P29466); assay: ICE (Caspase-1) enzyme inhibition assay, Ki; type: biochemical; conditions: in vitro enzyme assay
T1 sequence (P29466 120-297 limits assumed): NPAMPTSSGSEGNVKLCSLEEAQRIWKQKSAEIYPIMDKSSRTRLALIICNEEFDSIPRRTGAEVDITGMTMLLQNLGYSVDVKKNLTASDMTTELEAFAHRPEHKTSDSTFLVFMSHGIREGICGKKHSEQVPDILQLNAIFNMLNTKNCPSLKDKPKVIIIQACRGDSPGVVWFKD
T1 sequence (P29466 317-404 limits assumed): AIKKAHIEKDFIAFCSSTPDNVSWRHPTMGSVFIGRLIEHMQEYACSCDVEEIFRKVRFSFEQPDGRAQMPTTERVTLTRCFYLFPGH
Experimental: This assay is run using an Succinyl-Tyr-Val-Ala-Asp-p-Nitroanilide substrate. Synthesis of analogous substrates is described by L. A. Reiter (Int. J. Peptide Protein Res., 43, pp. 87-96 (1994)). The assay mixture contains:
The visible ICE assay is run in a 96-well microtiter plate. Buffer, ICE and DMSO (if inhibitor is present) are added to the wells in the order listed. The components are left to incubate at room temperature for 15 minutes starting at the time that all components are present in all wells. The microtiter plate reader is set to incubate at 37° C. After the 15 minute incubation, substrate is added directly to the wells and the reaction is monitored by following the release of the chromophore (pNA) at 405-603 nm at 37° C. for 20 minutes. A linear fit of the data is performed and the rate is calculated in mOD/min. DMSO is only present during experiments involving inhibitors, buffer is used to make up the volume to 100 μl in the other experiments.
This assay is run essentially according to Thornberry et al., Nature, 356 pp. 768-774 (1992), using substrate 17 referenced in that article. The substrate is: Acetyl-Tyr-Val-Ala-Asp-amino-4-methylcoumarin (AMC). The following components are mixed:
The assay is run in a 96-well microtiter plate. Buffer and ICE are added to the wells. The components are left to incubate at 37° C. for 15 minutes in a temperature-controlled wellplate. After the 15 minute incubation, the reaction is started by adding substrate directly to the wells and the reaction is monitored at 37° C. for 30 minutes by following the release of the AMC fluorophore using an excitation wavelength for 380 nm and an emission wavelength of 460 nm. A linear fit of the data for each well is performed and a rate is determined in fluorescence units per second.
(§1) For determination of enzyme inhibition constants (Ki) or the mode of inhibition (competitive, uncompetitive or noncompetitive), the rate data determined in the enzyme assays at varying inhibitor concentrations are computer-fit to standard enzyme kinetic equations (see I. H. Segel, Enzyme Kinetics, Wiley-Interscience, 1975).

[1] = system: Human Peripheral Blood Mononuclear Cells (PBMC); assay: PBMC cell assay: IL-1β assay with LPS-stimulated human PBMC; type: cell-based; conditions: mature IL-1β in supernatant, LPS 5 ng/ml, 16-18 hr
Description: IL-1β Assay with a Mixed Population of Human Peripheral Blood Mononuclear Cells (PBMC) or Enriched Adherent Mononuclear Cells
Processing of pre-IL-1β by ICE can be measured in cell culture using a variety of cell sources. Human PBMC obtained from healthy donors provides a mixed population of lymphocyte subtypes and mononuclear cells that produce a spectrum of interleukins and cytokines in response to many classes of physiological stimulators. Adherent mononuclear cells from PBMC provides an enriched source of normal monocytes for selective studies of cytokine production by activated cells.
An initial dilution series of test compound in DMSO or ethanol is prepared, with a subsequent dilution into RPMI-10% FBS media (containing 2 mM L-glutamine, 10 mM HEPES, 50 U and 50 μg/ml pen/strep) respectively to yield drugs at 4×the final test concentration containing 0.4% DMSO or 0.4% ethanol. The final concentration of DMSO is 0.1% for all drug dilutions. A concentration titration which brackets the apparent Ki for a test compound determined in an ICE inhibition assay is generally used for the primary compound screen.
Generally 5-6 compound dilutions are tested and the cellular component of the assay is performed in duplicate, with duplicate ELISA determinations on each cell culture supernatant.
Buffy coat cells isolated from one pint human blood (yielding 40-45 ml final volume plasma plus cells) are diluted with media to 80 ml and LeukoPREP separation tubes (Becton Dickinson) are each overlaid with 10 ml of cell suspension. After 15 min centrifugation at 1500-1800×g, the plasma/media layer is aspirated and then the mononuclear cell layer is collected with a Pasteur pipette and transferred to a 15 ml conical centrifuge tube (Corning). Media is added to bring the volume to 15 ml, gently mix the cells by inversion and centrifuge at 300×g for 15 min. The PBMC pellet is resuspended in a small volume of media, the cells are counted and adjusted to 6×10^6 cells/ml.
For the cellular assay, 1.0 ml of the cell suspension is added to each well of a 24-well flat bottom tissue culture plate (Corning), 0.5 ml test compound dilution and 0.5 ml LPS solution (Sigma #L-3012; 20 ng/ml solution prepared in complete RPMI media; final LPS concentration 5 ng/ml). The 0.5 ml additions of test compound and LPS are usually sufficient to mix the contents of the wells. Three control mixtures are run per experiment, with either LPS alone, solvent vehicle control, and/or additional media to adjust the final culture volume to 2.0 ml. The cell cultures are incubated for 16-18 hr at 37° C. in the presence of 5% CO2.
At the end of the incubation period, cells are harvested and transferred to 15 ml conical centrifuge tubes. After centrifugation for 10 min at 200×g, supernatants are harvested and transferred to 1.5 ml Eppendorf tubes. It may be noted that the cell pellet may be utilized for a biochemical evaluation of pre-IL-1β and/or mature IL-1β content in cytosol extracts by Western blotting or ELISA with pre-IL-1β specific antisera.
PBMC are isolated and prepared as described above. Media (1.0 ml) is first added to wells followed by 0.5 ml of the PBMC suspension. After a one hour incubation, plates are gently shaken and nonadherent cells aspirated from each well. Wells are then gently washed three times with 1.0 ml of media and final resuspended in 1.0 ml media. The enrichment for adherent cells generally yields 2.5-3.0×10^5 cells per well. […]

Human whole blood = assay: Whole blood assay for IL-1β production; type: cell-based; conditions: LPS 5.0 ng/ml, 16-18 hr at 30° C.
Experimental: The whole blood assay is a simple method for measuring the production of IL-1β (or other cytokines) and the activity of potential inhibitors. The complexity of this assay system, with its full complement of lymphoid and inflammatory cell types, spectrum of plasma proteins and red blood cells is an ideal in vitro representation of human in vivo physiologic conditions.
Human whole blood sample (^˜30-50 cc) 1.5 ml Eppendorf tubes
Set incubator or water bath at 30°C. Aliquot 0.25 ml of blood into 1.5 ml Eppendorf tubes. Note: be Sure to invert the whole blood sample tubes after every two aliquots. Differences in replicates may result if is the cells sediment and are not uniformly suspended. Use of a positive displacement pipette will also minimize differences between replicate aliquots.
Prepare drug dilutions in sterile pyrogen-free saline by serial dilution. A dilution series which brackets the apparent Ki for a test compound determined in an ICE inhibition assay is generally used for the primary compound screen. For extremely hydrophobic compounds, prepare compound dilutions in fresh plasma obtained from the same blood donor or in PBS-containing 5% DMSO to enhance solubility.
Add 25 μl test compound dilution or vehicle control and gently mix the sample. Then add 5.0 μl LPS solution (250 ng/ml stocked prepared fresh: 5.0 ng/ml final concentration LPS), and mix again. Incubate the tubes at […] in a water bath for 16-18 hr with occasional mixing. Alternatively, the tubes can be placed in a rotator set at 4 rpm for the same incubation period. This assay should be set up in duplicate or triplicate with the following controls: negative control—no LPS; positive control—no test inhibitor; vehicle control—the highest concentration of DMSO or compound solvent used in the experiment. Additional saline is added to all control tubes to normalize volumes for both control and experimental whole blood test samples.
After the incubation period, whole blood samples are centrifuged for 10 minutes at ^˜2000 rpm in the microfuge, plasma is transferred to a fresh microfuge tube and centrifuged at 1000×g to pellet residual platelets if necessary. Plasma samples may be stored frozen at −70° C. prior to assay for cytokine levels by ELISA.
R & D Systems (6.14 McKinley Place N.E. Minneapolis, Minn. 55413) Quantikine kits may be used for measurement of IL-1β and TNF-α. The assays are performed according to the manufacturer's directions. IL-1β levels of ^˜1-5 ng/ml in positive controls among a range of individuals may be observed. A 1:200 dilution of plasma for all samples is usually sufficient for experiments for ELISA results to fall on the linear range of the ELISA standard curves. It may be necessary to optimize standard dilutions if you observe differences in the whole blood assay. Nerad, J. L. et al., J. Leukocyte Biol., 52, pp. 687-692 (1992).

Flice Caspase-8 = Flice Caspase-8 (Homo sapiens, UniProt Q14790); assay: Flice (Caspase-8) enzyme inhibition, Ki; type: biochemical; conditions: in vitro enzyme assay
Description: (§2) Other assays that may be used to evaluate the compounds of this invention are disclosed in PCT application PCT/US96/20843, published Jun. 26, 1997, under publication no. WO 97/22619, which is incorporated herein by reference. Such assays include in vivo bioavailability determinations, pharmacokinetic studies in the mouse, inhibition of ICE homologs, inhibition of apoptosis, in vivo acute assay for anti-inflammatory efficacy, measurement of blood levels, IGIF assays, mouse carrageenan peritoneal inflammation assay, and type II collagen-induced arthritis.
as §1

CPP32 Caspase-3 = target: T2, CPP32 Caspase-3 (Homo sapiens, UniProt P42574); assay: CPP32 (Caspase-3) enzyme inhibition, Ki; type: biochemical; conditions: in vitro enzyme assay
T2 sequence (P42574 29-175 limits assumed): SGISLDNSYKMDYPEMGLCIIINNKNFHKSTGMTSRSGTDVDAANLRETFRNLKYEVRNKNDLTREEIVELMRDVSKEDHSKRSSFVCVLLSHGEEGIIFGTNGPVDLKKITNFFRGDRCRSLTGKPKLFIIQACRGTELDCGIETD
T2 sequence (P42574 176-277 limits assumed): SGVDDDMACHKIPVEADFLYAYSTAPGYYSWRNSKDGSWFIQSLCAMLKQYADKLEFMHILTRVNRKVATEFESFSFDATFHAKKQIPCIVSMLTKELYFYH
Description: as §2, §1

Chain of Flice Caspase-8 (Q14790 217-374 limits assumed): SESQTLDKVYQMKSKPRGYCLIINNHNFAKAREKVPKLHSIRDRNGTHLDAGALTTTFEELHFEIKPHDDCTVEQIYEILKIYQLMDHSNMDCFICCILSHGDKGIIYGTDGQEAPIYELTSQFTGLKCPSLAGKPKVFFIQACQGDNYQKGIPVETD
Chain of Flice Caspase-8 (Q14790 385-479 limits assumed): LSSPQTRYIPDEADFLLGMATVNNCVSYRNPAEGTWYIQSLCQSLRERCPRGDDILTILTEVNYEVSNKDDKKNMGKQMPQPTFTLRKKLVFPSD

SMILES	Ki (ICE Caspase-1) [µM]	IC50 (Human whole blood) [µM]	Ki (Flice Caspase-8) [µM]	Ki (CPP32 Caspase-3) [µM]	IC50 [1] [µM]
CC(C(=O)N[C@H](C=O)CC(=O)O)N1C(=O)[C@@H](NC(=O)c2cc(Cl)c(O)c(Cl)c2)CCC(=O)N1C (mixture of isomers) [Compound 20, 3-{2-[6-(3,5-Dichloro-4-hydroxy-benzoylamino)-2-methyl-3,7-dioxo-[1,2]diazepan-1-yl]-propionylamino}-4-oxo-butyric acid]	0.0009	0.83			0.54
CS(=O)(=O)N1CCC[C@H](NC(=O)c2cc(Cl)c(O)c(Cl)c2)C(=O)N1CC(=O)N[C@H](C=O)CC(=O)O [Compound 27, 3-{2-[6-(3,5-Dichloro-4-hydroxy-benzoylamino)-2-methanesulfonyl-7-oxo-[1,2]diazepan-1-yl]-acetylamino}-4-oxo-butyric acid]	0.017	1.9			1

Further lines, with some results ahead:

Ki (ICE Caspase-1) [µM]	IC50 (Human whole blood) [µM]	Ki (Flice Caspase-8) [µM]	Ki (CPP32 Caspase-3) [µM]	SMILES	IC50 [1] [µM]
0.101	7.3			O=C[C@H](CC(=O)O)NC(=O)CN1C(=O)[C@@H](NC(=O)c2nccc3ccccc23)CCC(=O)N1Cc1ccccc1 [Compound 11a, 3-(2-{2-Benzyl-6-[(isoquinoline-1-carbonyl)-amino]-3,7-dioxo-[1,2]diazepan-1-yl}-acetylamino)-4-oxo-butyric acid]	1.4
0.12	5.8			CCCN1C(=O)CC[C@H](NC(=O)c2nccc3ccccc23)C(=O)N1CC(=O)N[C@H](C=O)CC(=O)O [Compound 11b, 3-(2-(6-[(Isoquinoline-1-carbonyl)-amino]-3,7-dioxo-2-propyl-[1,2]diazepan-1-yl)-acetylamino)-4-oxo-butyric acid]	1.5
0.016	1.45	1.5	22.2	CCCN1C(=O)CC[C@H](NC(=O)c2cc(Cl)c(O)c(Cl)c2)C(=O)N1CC(=O)N[C@H](C=O)CC(=O)O [Compound 11c, 3-{2-[6-(3,5-Dichloro-4-hydroxy-benzoylamino)-3,7-dioxo-2-propyl-[1,2]diazepan-1-yl]-acetylamino}-4-oxo-butyric acid]	0.42
